Experimental data reported in patent US20240173307A1, “MODULATORS OF THE INTEGRATED STRESS PATHWAY” (Calico Life Sciences LLC, priority 2017, published 2024).
pEC50: −log10 of the molar value.

system: HEK293T cells carrying the ATF4 luciferase reporter; test: ATF4-Luc assay (in vitro model of vanishing white matter disease); format: cell-based; conditions: Homo sapiens, HEK-293T, 1 μg/mL tunicamycin, 7 hours
Procedure: In order to test exemplary compounds of the invention in a cellular context, a stable VWMD cell line was first constructed. The ATF4 reporter was prepared by fusing the human full-length ATF4 5′-UTR (NCBI Accession No. BCO22088.2) in front of the firefly luciferase (FLuc) coding sequence lacking the initiator methionine as described in Sidrauski et al (eLife 2013). The construct was used to produce recombinant retroviruses using standard methods and the resulting viral supernatant was used to transduce HEK293T cells, which were then subsequently selected with puromycin to generate a stable cell line.
HEK293T cells carrying the ATF4 luciferase reporter were plated on polylysine coated 384-well plates (Greiner Bio-one) at 30,000 cells per well. Cells were treated the next day with 1 μg/mL tunicamycin and 200 nM of a compound of Formula (I) for 7 hours. Luminescence was measured using One Glo (Promega) as specified by the manufacturer. Cells were maintained in DMEM with L-glutamine supplemented with 10% heat-inactivated FBS (Gibco) and Antibiotic-Antimycotic solution (Gibco).
Table 2 below summarizes the EC50 data obtained using the ATF4-Luc assay for exemplary compounds of the invention.

`Cn1c(CNC(=O)C23CCC(NC(=O)COc4ccc(Cl)c(F)c4)(CC2)CC3)nc2cc(F)ccc21` [Compound 323, 4-[2-(4-chloro-3-fluorophenoxy)acetamido]-N-[(5-fluoro-1-methyl-1H-benzimidazol-2-yl)methyl]bicyclo[2.2.2]octane-1-carboxamide] and `O=C(COc1ccc(Cl)c(F)c1)NC12CCC(C(=O)NCc3ccc(Cl)cn3)(CC1)CC2` [Compound 257, 4-[2-(4-chloro-3-fluorophenoxy)acetamido]-N-[(5-chloropyridin-2-yl)methyl]bicyclo[2.2.2]octane-1-carboxamide] cannot be ordered by pEC50: greater than 6.60 for the first, greater than 6.60 for the second.

First: COc1cnc(NC(=O)C23CC(NC(=O)COc4ccc(Cl)c(F)c4)(C2)C3)nc1 [Compound 302, 3-[2-(4-chloro-3-fluorophenoxy)acetamido]-N-(5-methoxypyrimidin-2-yl)bicyclo[1.1.1]pentane-1-carboxamide]
Second: Cc1ccc(NC(=O)C23CC(NC(=O)COc4ccc(Cl)c(F)c4)(C2)C3)nc1 [Compound 299, 3-[2-(4-chloro-3-fluorophenoxy)acetamido]-N-(5-methylpyridin-2-yl)bicyclo[1.1.1]pentane-1-carboxamide]
The pEC50 of the first is lower: 6.30 to 6.60 for the first, greater than 6.60 for the second.

First: Cc1cnc(CNC(=O)C23CCC(NC(=O)COc4ccc(Cl)c(F)c4)(CC2)CC3)cn1 [Compound 258, 4-[2-(4-chloro-3-fluorophenoxy)acetamido]-N-[(5-methylpyrazin-2-yl)methyl]bicyclo[2.2.2]octane-1-carboxamide]
Second: O=C(COc1ccc(Cl)c(F)c1)NC12CCC(C(=O)NCc3ccc(C(F)F)cn3)(CC1)CC2 [Compound 346, 4-[2-(4-chloro-3-fluorophenoxy)acetamido]-N-{[5-(difluoromethyl)pyridin-2-yl]methyl}bicyclo[2.2.2]octane-1-carboxamide]
The pEC50 of the first is lower: 6.00 to 6.30 for the first, greater than 6.60 for the second.

First: O=C(COc1ccc(Cl)c(F)c1)NC12CC(C(=O)Nc3ccccc3F)(C1)C2 [Compound 314, 3-[2-(4-chloro-3-fluorophenoxy)acetamido]-N-(2-fluorophenyl)bicyclo[1.1.1]pentane-1-carboxamide]
Second: O=C(COc1ccc(Cl)c(F)c1)NC12CC(C(=O)Nc3ccc(Cl)cc3)(C1)C2 [Compound 283, 3-[2-(4-chloro-3-fluorophenoxy)acetamido]-N-(4-chlorophenyl)bicyclo[1.1.1]pentane-1-carboxamide]
The pEC50 of the first is lower: 6.00 to 6.30 for the first, greater than 6.60 for the second. The second is the more potent here.

`O=C(COc1ccc(Cl)c(F)c1)NC12CCC(C(=O)NCc3ccc(Cl)cn3)(CC1)OC2` [Compound 342, 4-[2-(4-chloro-3-fluorophenoxy)acetamido]-N-[(5-chloropyridin-2-yl)methyl]-2-oxabicyclo[2.2.2]octane-1-carboxamide] and `O=C(COc1ccc(Cl)c(F)c1)NC12CCC(C(=O)NCc3ccc(C(F)(F)F)cn3)(CC1)OC2` [Compound 335, 4-[2-(4-chloro-3-fluorophenoxy)acetamido]-N-{[5-(trifluoromethyl)pyridin-2-yl]methyl}-2-oxabicyclo[2.2.2]octane-1-carboxamide] cannot be ordered by pEC50: greater than 6.60 for the first, greater than 6.60 for the second.

`O=C(COc1ccc(Cl)c(F)c1)NC12CCC(C(=O)NCc3ccc(C(F)(F)F)cn3)(CC1)CC2O` (stereo not shown) [Compound 275, 4-[2-(4-chloro-3-fluorophenoxy)acetamido]-3-hydroxy-N-{[5-(trifluoromethyl)pyridin-2-yl]methyl}bicyclo[2.2.2]octane-1-carboxamide] and `O=C(COc1ccc(Cl)c(F)c1)NC12CCC(C(=O)NCc3ccc(C(F)(F)F)cn3)(CC1)C[C@@H]2O` (single isomer, unassigned) [Compound 272] cannot be ordered by pEC50: greater than 6.60 for the first, greater than 6.60 for the second.

`O=C(COc1ccc(Cl)c(F)c1)NC12CCC(C(=O)Nc3ccc(C(F)(F)F)cc3)(CC1)OC2` [Compound 337, 4-[2-(4-chloro-3-fluorophenoxy)acetamido]-N-[4-(trifluoromethyl)phenyl]-2-oxabicyclo[2.2.2]octane-1-carboxamide] and `O=C(COc1ccc(Cl)c(F)c1)NC12CCC(C(=O)NCc3ccc(C(F)(F)F)cc3)(CC1)C(O)C2` (stereo not shown) [Compound 110, 4-[2-(4-chloro-3-fluorophenoxy)acetamido]-2-hydroxy-N-{[4-(trifluoromethyl)phenyl]methyl}bicyclo[2.2.2]octane-1-carboxamide] cannot be ordered by pEC50: greater than 6.60 for the first, greater than 6.60 for the second.

`O=C(COc1ccc(Cl)c(Cl)c1)NC12CC(C(=O)Nc3cccnc3)(C1)C2` [Compound 295, 3-[2-(3,4-dichlorophenoxy)acetamido]-N-(pyridin-3-yl)bicyclo[1.1.1]pentane-1-carboxamide] and `O=C(COc1ccc(Cl)c(F)c1)NC12CC(C(=O)Nc3cccnc3)(C1)C2` [Compound 300, 3-[2-(4-chloro-3-fluorophenoxy)acetamido]-N-(pyridin-3-yl)bicyclo[1.1.1]pentane-1-carboxamide] cannot be ordered by pEC50: greater than 6.60 for the first, greater than 6.60 for the second.

`O=C(COc1ccc(Cl)c(F)c1)NC12CC(C(=O)Nc3ccncc3)(C1)C2` [Compound 301, 3-[2-(4-chloro-3-fluorophenoxy)acetamido]-N-(pyridin-4-yl)bicyclo[1.1.1]pentane-1-carboxamide] and `N#Cc1ccc(NC(=O)C23CC(NC(=O)COc4ccc(Cl)c(F)c4)(C2)C3)nc1` [Compound 305, 3-[2-(4-chloro-3-fluorophenoxy)acetamido]-N-(5-cyanopyridin-2-yl)bicyclo[1.1.1]pentane-1-carboxamide] cannot be ordered by pEC50: greater than 6.60 for the first, greater than 6.60 for the second.

`O=C(COc1ccc(Cl)c(F)c1)NC12CC(C(=O)NCCCc3cccnc3)(C1)C2` [Compound 253, 3-[2-(4-chloro-3-fluorophenoxy)acetamido]-N-[3-(pyridin-3-yl)propyl]bicyclo[1.1.1]pentane-1-carboxamide] and `O=C(COc1ccc(Cl)c(F)c1)NC12CC(C(=O)N(CCO)Cc3ccc(Cl)c(F)c3)(C1)C2` [Compound 343, 3-[2-(4-chloro-3-fluorophenoxy)acetamido]-N-[(4-chloro-3-fluorophenyl)methyl]-N-(2-hydroxyethyl)bicyclo[1.1.1]pentane-1-carboxamide] fall in the same range of pEC50: 5.70 to 6.00 for the first, 5.70 to 6.00 for the second.

Compared with `O=C(COc1ccc(Cl)c(F)c1)NC12CCC(C(=O)NCc3ccccn3)(CC1)CC2` [Compound 259, 4-[2-(4-chloro-3-fluorophenoxy)acetamido]-N-[(pyridin-2-yl)methyl]bicyclo[2.2.2]octane-1-carboxamide], `O=C(COc1ccc(Cl)c(F)c1)NC12CCC(C(=O)NCc3ccc(OC(F)F)nc3)(CC1)CC2` [Compound 262, 4-[2-(4-chloro-3-fluorophenoxy)acetamido]-N-{[6-(difluoromethoxy)pyridin-3-yl]methyl}bicyclo[2.2.2]octane-1-carboxamide] is higher in pEC50: 6.00 to 6.30 for the first, greater than 6.60 for the second. The second is the more potent here.

`O=C(COc1ccc(Cl)c(F)c1)NC12CCC(C(=O)NCC(=O)c3ccc(Cl)cc3)(CC1)[C@H](O)C2` [Compound 276, (2R)-4-[2-(4-chloro-3-fluorophenoxy)acetamido]-N-[2-(4-chlorophenyl)-2-oxoethyl]-2-hydroxybicyclo[2.2.2]octane-1-carboxamide] and `O=C(COc1ccc(Cl)c(F)c1)NC12CCC(C(=O)NCc3ccc(C(F)(F)F)cc3)(CC1)C[C@@H]2O` (single isomer, unassigned) [Compound 270] cannot be ordered by pEC50: greater than 6.60 for the first, greater than 6.60 for the second.

Going from `COc1ccc(CNC(=O)C23CCC(NC(=O)COc4ccc(Cl)c(F)c4)(CC2)C(O)C3)nn1` (stereo not shown) [Compound 321, 4-[2-(4-chloro-3-fluorophenoxy)acetamido]-3-hydroxy-N-[(6-methoxypyridazin-3-yl)methyl]bicyclo[2.2.2]octane-1-carboxamide] to `O=C(COc1ccc(Cl)c(F)c1)NC12CCC(C(=O)NCc3nc4cc(F)c(F)cc4[nH]3)(CC1)CC2O` (stereo not shown) [Compound 319, 4-[2-(4-chloro-3-fluorophenoxy)acetamido]-N-[(5,6-difluoro-1H-benzimidazol-2-yl)methyl]-3-hydroxybicyclo[2.2.2]octane-1-carboxamide], the pEC50 rises from less than 5.70 to greater than 6.60. The second is the more potent here.

Compared with `NC(=O)CN(Cc1ccc(Cl)c(F)c1)C(=O)C12CCC(NC(=O)COc3ccc(Cl)c(F)c3)(CC1)CC2` [Compound 320, N-(2-amino-2-oxoethyl)-4-[2-(4-chloro-3-fluorophenoxy)acetamido]-N-[(4-chloro-3-fluorophenyl)methyl]bicyclo[2.2.2]octane-1-carboxamide], `O=C(COc1ccc(Cl)c(F)c1)NC12CCC(C(=O)Nc3ccc(OCC(F)(F)F)nc3)(CC1)CC2` [Compound 281, 4-[2-(4-chloro-3-fluorophenoxy)acetamido]-N-[6-(2,2,2-trifluoroethoxy)pyridin-3-yl]bicyclo[2.2.2]octane-1-carboxamide] is lower in pEC50: 6.00 to 6.30 for the first, less than 5.70 for the second.

`O=C(COc1ccc(Cl)c(F)c1)NC12CC(C(=O)Nc3cnc(C(F)F)cn3)(C1)C2` [Compound 284, 3-[2-(4-chloro-3-fluorophenoxy)acetamido]-N-[5-(difluoromethyl)pyrazin-2-yl]bicyclo[1.1.1]pentane-1-carboxamide] and `O=C(COc1ccc(Cl)c(F)c1)NC12CC(C(=O)Nc3ccc(OCC(F)(F)F)nc3)(C1)C2` [Compound 310, 3-[2-(4-chloro-3-fluorophenoxy)acetamido]-N-[6-(2,2,2-trifluoroethoxy)pyridin-3-yl]bicyclo[1.1.1]pentane-1-carboxamide] cannot be ordered by pEC50: greater than 6.60 for the first, greater than 6.60 for the second.

Compound `O=C(COc1ccc(Cl)c(F)c1)NC12CCC(C(=O)NCc3ccc(C(F)(F)F)cn3)(CC1)C(=O)N2` [Compound 333, 1-[2-(4-chloro-3-fluorophenoxy)acetamido]-3-oxo-N-{[5-(trifluoromethyl)pyridin-2-yl]methyl}-2-azabicyclo[2.2.2]octane-4-carboxamide] has a pEC50 greater than 6.60.
